Potency data for eleven molecules are collected here from ChEMBL document CHEMBL1121894, “Studies on phenethylamine hallucinogens. 2. Conformations of arylmethoxyl groups using 13C NMR” (1981).

Calls of active or inactive are those of the source. The calls are words filed in the database; no cut-off is given here.

For one test, the species on record is Homo sapiens. In words: Psychotomimetic potency expressed as the effective dose of mescaline divided by the effective dose in human. It counts as functional.
As for `COc1ccc(OC)c(CC(C)N)c1.Cl` (stereo unspecified), the Potency is reported as 8 MU.

In turn, `COc1cc(CC(C)N)c(OC)cc1C.Cl` (stereo unspecified) showed a Potency of 80 MU.

Consider `COc1c(CCN)ccc2c1OCO2.Cl`, for which the Potency was determined as 5 MU.

`COc1c(CC(C)N)ccc2c1OCO2.Cl` (stereo unspecified): the Potency stood at 10 MU.

Molecule `COc1ccc(CC(C)N)cc1.Cl` (stereo unspecified) showed a Potency of 5 MU.

Molecule `COc1cc(OC)c(OC)cc1CC(C)N.Cl` (stereo unspecified) showed a Potency of 17 MU.

The molecule `COc1cc(CC(C)N)cc(OC)c1OC.Cl` (stereo unspecified) returned a Potency of 2.2 MU.

As for `COc1cc(CCN)cc(OC)c1OC.Cl`, the Potency was determined as 1 MU.

On to `COc1cc(OC)c(CC(C)N)c(OC)c1.Cl` (stereo unspecified), for which the Potency was found to be 10 MU.

A further test is filed under the species Homo sapiens. In words: Psychotomimetic potency expressed as the effective dose of mescaline divided by the effective dose in human; Inactive. It is filed as functional, organism-based.
Take `COc1ccc(CC(C)N)c(OC)c1OC` (stereo unspecified): the Potency result was “inactive”.

For the molecule `COc1ccc(CCN)c(OC)c1OC`, the Potency result was “inactive”.
